Measured values from patent EP4778531A1, “MUSCLE RELAXANT ANTAGONIST FOR REVERSAL FOR BENZYLISOQUINOLINE MUSCLE RELAXANT” (priority 2023, dated 2025).

What was measured:
[1] = test system: cisatracurium-induced guinea pig muscle relaxation model; assay: Arterial blood pressure and heart rate in the cisatracurium muscle relaxation model; assay type: in vivo, Hartley guinea pigs
Protocol: Ninety (90) qualified Hartley guinea pigs, male, were used. Sixty (60) animals were randomly divided into 6 experimental groups based on body weight using a stratified random method: negative control group, positive control group, low-dose test group, medium-dose test group, high-dose test group, and combination group, with 10 animals per group (n=10). The remaining animals served as spares. The negative control group received 0.9% sodium chloride. The positive control group received 0.0625 mg/kg neostigmine methylsulfate (referred to as neostigmine). The low-dose test group received 10 mg/kg adamgammadex sodium. The medium-dose test group received 20 mg/kg adamgammadex sodium. The high-dose test group received 40 mg/kg adamgammadex sodium. The combination group received 10 mg/kg adamgammadex sodium and 0.03125 mg/kg neostigmine. The administration volume for all groups was 1 mL/kg.
Adaptive feeding was conducted after the quarantine period. On the day of the experiment, guinea pigs were weighed, administered atropine (0.1 mg/kg) intramuscularly, and then anesthetized with an intraperitoneal injection of anesthetic (pentobarbital sodium 10 mg/kg, urethane 1000 mg/kg). After fixation, the animals were intubated and connected to a small animal ventilator. Both external jugular veins and the right carotid artery were cannulated. The left jugular vein was used for cisatracurium infusion, the right jugular vein for injection of different test substances, and the carotid artery was connected to a multi-channel physiological signal acquisition and processing system for continuous monitoring of arterial blood pressure and heart rate. Electrode patches were subcutaneously placed behind the left femur and tibia of the guinea pig, and two stimulating electrodes of the neuromuscular monitor were fixed to the two electrode patches. The left hind paw was fixed on a custom-made platform. A sensor was fixed to the skin surface over the gastrocnemius muscle of the left hind limb, and a skin temperature probe was fixed to a flat area of skin. Continuous single-twitch stimulation was applied at 1 Hz. After the twitch height stabilized, the mode was switched to train-of-four stimulation (TOF mode, stimulus current 5 mA, frequency 2 Hz, pulse width 0.2 ms, interval between trains 15 s) for at least 5 min. Calibration was then performed using Calibration Mode 2, followed by TOF mode stimulation. After obtaining a stable stimulation response for at least 2 min, cisatracurium solution was infused intravenously using a dual-channel micro-infusion pump, and the start time of infusion was recorded. […] At this point, cisatracurium infusion was stopped. After stopping the infusion, neuromuscular function was allowed to recover spontaneously. When neuromuscular function reached moderate recovery, the test drug formulation was administered intravenously. Neuromuscular function was allowed to recover completely, and the administration time was recorded (Figure 1). Using the time of spontaneous recovery to moderate neuromuscular function (TOF50) as zero point, the times for recovery from TOF50 to TOF75, TOF75 to TOF90, and TOF50 to TOF90 were calculated for each animal (Table 1-2). Arterial blood pressure (systolic, diastolic, mean arterial pressure) and heart rate were recorded before cisatracurium infusion, at the time cisatracurium infusion was stopped, at the time of moderate neuromuscular recovery, and at the time of complete neuromuscular function recovery (Tables 3-7). Data were expressed as Mean ± SD. Statistical T-tests were performed using SPSS software to evaluate differences in blood pressure, heart rate, and residual neuromuscular blockade recovery times. P < 0.05 was considered statistically significant.

[2] = test system: Wild-type AB strain zebrafish; assay: Evaluation of compound-induced sensitization risk in zebrafish (tryptase OD, BAPNA); assay type: in vivo; settings: 500 ng/tail
Protocol: Wild-type AB strain zebrafish at 2 days post-fertilization (2 dpf) were randomly selected and placed in 24-well plates. Each group was with 6 replicate wells per group and 10 zebrafish per well. The following groups were set up: (1) Normal control group; (2) Positive control group (the used drug was mast cell sensitizer C48/80 at 1.5 µg/mL concentration); (3) Compound 1 (adamgammadex sodium) experimental group; (4) Compound 2 experimental group; (5) Compound 3 experimental group; (6) Compound 4 experimental group; (7) Compound 5 experimental group; (8) Compound 6 experimental group; (9) Compound 7 (sugammadex sodium) experimental group. In the experimental groups, Compound 1 was adamgammadex sodium, Compounds 2-6 were adamgammadex sodium analogues, and Compound 7 was sugammadex sodium. The volume of each well was 1 mL, and all experimental groups were treated with BAPNA (a specific detection reagent for mast cell degranulation) dissolved in water. Table 1: Structural Formulas of Compounds 1-7
After 1 day of treatment at 28°C, the liquid was transferred to a 96-well plate, with 200 µL/well. The relative absorbance (OD value) of tryptase expression levels in each experimental group was measured using a microplate reader. The OD value statistical analysis results were used to evaluate the sensitization risk of the samples. Statistical analysis was performed using SPSS software, with p < 0.05 indicating a significant difference. Sensitization risk (%) = (OD(Samplegroup)−OD(NormalControlgroup))/(OD (NormalControlgroup)) × 100% [formula]

[3] = positive control group, 0.0625 mg/kg i.v.
[4] = high-dose test group, 40 mg/kg i.v.
[5] = low-dose test group, 10 mg/kg i.v.
[6] = medium-dose test group, 20 mg/kg i.v.

CN(C)C(=O)Oc1cccc([N+](C)(C)C)c1 [Neostigmine, neostigmine methylsulfate]
effect on heart rate (in words) ([1]; 0.0625 mg/kg): significant side effect of lowering heart rate | heart rate decrease ([1]; 0.0625 mg/kg neostigmine, positive control group, summary statement): approximately 30% | Heart rate Administration [1, 3]: 238+42 bmp | Heart rate Complete Recovery [1, 3]: 157±49 bmp | Heart rate Moderate Recovery [1, 3]: 181±54 bmp | Heart rate Muscle Relaxation End [1, 3]: 239+11 bmp | Heart rate Muscle Relaxation Start [1, 3]: 240+14 bmp | Mean Arterial Pressure mAP Administration [1, 3]: 68+12 mmHg | Mean Arterial Pressure mAP Complete Recovery [1, 3]: 67+15 mmHg | Mean Arterial Pressure mAP Moderate Recovery [1, 3]: 69+12 mmHg | Mean Arterial Pressure mAP Muscle Relaxation End [1, 3]: 63+8 mmHg | Mean Arterial Pressure mAP Muscle Relaxation Start [1, 3]: 62+11 mmHg | Mean Diastolic Pressure mDP Administration [1, 3]: 60+10 mmHg | Mean Diastolic Pressure mDP Complete Recovery [1, 3]: 58+15 mmHg | Mean Diastolic Pressure mDP Moderate Recovery [1, 3]: 61+12 mmHg | Mean Diastolic Pressure mDP Muscle Relaxation End [1, 3]: 57+6 mmHg | Mean Diastolic Pressure mDP Muscle Relaxation Start [1, 3]: 56±9 mmHg | Mean Pulse Pressure Administration [1, 3]: 17±8 mmHg | Mean Pulse Pressure Complete Recovery [1, 3]: 19+6 mmHg | Mean Pulse Pressure Moderate Recovery [1, 3]: 19±8 mmHg | Mean Pulse Pressure Muscle Relaxation End [1, 3]: 14±5 mmHg | Mean Pulse Pressure Muscle Relaxation Start [1, 3]: 15+4 mmHg | Mean Systolic Pressure mSP Administration [1, 3]: 76±15 mmHg | Mean Systolic Pressure mSP Complete Recovery [1, 3]: 78±13 mmHg | Mean Systolic Pressure mSP Moderate Recovery [1, 3]: 79±13 mmHg | Mean Systolic Pressure mSP Muscle Relaxation End [1, 3]: 71±10 mmHg | Mean Systolic Pressure mSP Muscle Relaxation Start [1, 3]: 71±12 mmHg | Degree of heart rate decrease at complete muscle relaxation recovery ([1]; positive control group, 0.0625 mg/kg i.v., vs heart rate at start of muscle relaxation): 35%

Adamgammadex sodium [Compound 1]
OD value (mean ± SE) ([2]; 1 day at 28°C, relative absorbance of tryptase expression levels): 0.060 ± 0.001 | Sensitization risk (%) ([2]; 1 day at 28°C, vs normal control OD): 11% | sensitization risk (in words) ([2]; conclusion from OD value): almost no sensitization risk | effect on animal blood pressure or heart rate (in words) ([1]; 10, 20, and 40 mg/kg): no effect on animal blood pressure or heart rate | Heart rate Administration [1, 4]: 258+18 bmp | Heart rate Complete Recovery [1, 4]: 258+16 bmp | Heart rate Moderate Recovery [1, 4]: 257+18 bmp | Heart rate Muscle Relaxation End [1, 4]: 249±21 bmp | Heart rate Muscle Relaxation Start [1, 4]: 243+27 bmp | Mean Arterial Pressure mAP Administration [1, 4]: 70±8 mmHg | Mean Arterial Pressure mAP Complete Recovery [1, 4]: 73+10 mmHg | Mean Arterial Pressure mAP Moderate Recovery [1, 4]: 72+8 mmHg | Mean Arterial Pressure mAP Muscle Relaxation End [1, 4]: 65+10 mmHg | Mean Arterial Pressure mAP Muscle Relaxation Start [1, 4]: 64+12 mmHg | Mean Diastolic Pressure mDP Administration [1, 4]: 60+7 mmHg | Mean Diastolic Pressure mDP Complete Recovery [1, 4]: 63±9 mmHg | Mean Diastolic Pressure mDP Moderate Recovery [1, 4]: 62±8 mmHg | Mean Diastolic Pressure mDP Muscle Relaxation End [1, 4]: 56+9 mmHg | Mean Diastolic Pressure mDP Muscle Relaxation Start [1, 4]: 56+12 mmHg | Mean Pulse Pressure Administration [1, 4]: 21±5 mmHg | Mean Pulse Pressure Complete Recovery [1, 4]: 21+5 mmHg | Mean Pulse Pressure Moderate Recovery [1, 4]: 21+4 mmHg | Mean Pulse Pressure Muscle Relaxation End [1, 4]: 19±5 mmHg | Mean Pulse Pressure Muscle Relaxation Start [1, 4]: 18+4 mmHg | Mean Systolic Pressure mSP Administration [1, 4]: 81±10 mmHg | Mean Systolic Pressure mSP Complete Recovery [1, 4]: 84±11 mmHg | Mean Systolic Pressure mSP Moderate Recovery [1, 4]: 83±9 mmHg | Mean Systolic Pressure mSP Muscle Relaxation End [1, 4]: 75±11 mmHg | Mean Systolic Pressure mSP Muscle Relaxation Start [1, 4]: 74±12 mmHg | Heart rate Administration [1, 5]: 269+20 bmp | Heart rate Complete Recovery [1, 5]: 270+18 bmp | Heart rate Moderate Recovery [1, 5]: 268+20 bmp | Heart rate Muscle Relaxation End [1, 5]: 261+20 bmp | Heart rate Muscle Relaxation Start [1, 5]: 259+30 bmp | Mean Arterial Pressure mAP Administration [1, 5]: 75+15 mmHg | Mean Arterial Pressure mAP Complete Recovery [1, 5]: 76+13 mmHg | Mean Arterial Pressure mAP Moderate Recovery [1, 5]: 74+10 mmHg | Mean Arterial Pressure mAP Muscle Relaxation End [1, 5]: 70+11 mmHg | Mean Arterial Pressure mAP Muscle Relaxation Start [1, 5]: 70±16 mmHg | Mean Diastolic Pressure mDP Administration [1, 5]: 67+13 mmHg | Mean Diastolic Pressure mDP Complete Recovery [1, 5]: 68+11 mmHg | Mean Diastolic Pressure mDP Moderate Recovery [1, 5]: 65+8 mmHg | Mean Diastolic Pressure mDP Muscle Relaxation End [1, 5]: 62+9 mmHg | Mean Diastolic Pressure mDP Muscle Relaxation Start [1, 5]: 61+14 mmHg | Mean Pulse Pressure Administration [1, 5]: 19+6 mmHg | Mean Pulse Pressure Complete Recovery [1, 5]: 18+6 mmHg | Mean Pulse Pressure Moderate Recovery [1, 5]: 18±5 mmHg | Mean Pulse Pressure Muscle Relaxation End [1, 5]: 17+4 mmHg | Mean Pulse Pressure Muscle Relaxation Start [1, 5]: 18±5 mmHg | Mean Systolic Pressure mSP Administration [1, 5]: 85±18 mmHg | Mean Systolic Pressure mSP Complete Recovery [1, 5]: 86±16 mmHg | Mean Systolic Pressure mSP Moderate Recovery [1, 5]: 83±12 mmHg | Mean Systolic Pressure mSP Muscle Relaxation End [1, 5]: 79±12 mmHg | Mean Systolic Pressure mSP Muscle Relaxation Start [1, 5]: 79±18 mmHg | Heart rate Administration [1, 6]: 259+38 bmp | Heart rate Complete Recovery [1, 6]: 263+36 bmp | Heart rate Moderate Recovery [1, 6]: 261+35 bmp | Heart rate Muscle Relaxation End [1, 6]: 247+42 bmp | Heart rate Muscle Relaxation Start [1, 6]: 242+43 bmp | Mean Arterial Pressure mAP Administration [1, 6]: 70+8 mmHg | Mean Arterial Pressure mAP Complete Recovery [1, 6]: 73+6 mmHg | Mean Arterial Pressure mAP Moderate Recovery [1, 6]: 74+7 mmHg | Mean Arterial Pressure mAP Muscle Relaxation End [1, 6]: 65+10 mmHg | Mean Arterial Pressure mAP Muscle Relaxation Start [1, 6]: 64±8 mmHg | Mean Diastolic Pressure mDP Administration [1, 6]: 61+8 mmHg | Mean Diastolic Pressure mDP Complete Recovery [1, 6]: 64+6 mmHg | Mean Diastolic Pressure mDP Moderate Recovery [1, 6]: 64+6 mmHg | Mean Diastolic Pressure mDP Muscle Relaxation End [1, 6]: 57+9 mmHg | Mean Diastolic Pressure mDP Muscle Relaxation Start [1, 6]: 56+8 mmHg | Mean Pulse Pressure Administration [1, 6]: 19±3 mmHg | Mean Pulse Pressure Complete Recovery [1, 6]: 20+4 mmHg | Mean Pulse Pressure Moderate Recovery [1, 6]: 20+3 mmHg | Mean Pulse Pressure Muscle Relaxation End [1, 6]: 18±3 mmHg | Mean Pulse Pressure Muscle Relaxation Start [1, 6]: 18±3 mmHg | Mean Systolic Pressure mSP Administration [1, 6]: 80±8 mmHg | Mean Systolic Pressure mSP Complete Recovery [1, 6]: 84±7 mmHg | Mean Systolic Pressure mSP Moderate Recovery [1, 6]: 84±7 mmHg | Mean Systolic Pressure mSP Muscle Relaxation End [1, 6]: 75±10 mmHg | Mean Systolic Pressure mSP Muscle Relaxation Start [1, 6]: 74±9 mmHg
